Measured values as given in US10408783B2, “Electrochemical methods and compounds for the detection of enzymes” (GEORGIA STATE UNIVERSITY RESEARCH FOUNDATION, INC., priority 2014, dated 2019).
“Also recorded” adds a separate entry of the source.

Columns and labels:
[1] = system: membrane free soluble N1 NA (strain H5N1 A/Anhui/1/2005); type: biochemical, influenza virus
[2] = system: N2 NA (strain A/Babol/36/2005); assay: Electrochemical assay, 3 electrode system: SG1 cleavage and drug susceptibility; type: biochemical, influenza virus
H1N1 A/Brisbane/59/2007 = assay: as above; type: biochemical, Influenza A virus
H3N2 A/Aichi/2/1968 = assay: as above; type: biochemical, Influenza A virus
H3N2 A/HongKong/8/68 = assay: as above; type: biochemical, Influenza A virus
[3] = system: bacterial NA (BNA) from Clostridium perfringens; type: biochemical
[4] = system: β-N-Acetylglucosaminidase; type: biochemical; conditions: substrate incubated with β-N-Acetylglucosaminidase
α-L-Fucosidase = type: biochemical; conditions: substrate incubated with α-L-Fucosidase
[5] = Electrochemical assay, 3 electrode system: SG1 in PBS buffer without enzyme; conditions: SG1 0.5 mM in PBS buffer, no NA or virus
[6] = system: A/Wilson-Smith/1933 (H1N1); assay: Electrochemical assay using the printed electrodes; type: biochemical, Influenza A virus; conditions: 100 μL virus + 100 μL PBS buffer with SG1, 1 hour, 37° C.; 20 μL tested
[7] = system: A/PuertoRico/8/1934 (H1N1); assay: Electrochemical assay using the printed electrodes; type: biochemical, Influenza A virus; conditions: 100 μL virus + 100 μL PBS buffer with SG1, 1 hour, 37° C.; 20 μL tested
A/HongKong/8/1968 (H3N2) = assay: Electrochemical assay using the printed electrodes; type: biochemical, Influenza A virus; conditions: 100 μL virus + 100 μL PBS buffer with SG1, 1 hour, 37° C.; 20 μL tested
A/Aichi/2/1968 (H1N1) = assay: Electrochemical assay using the printed electrodes; type: biochemical, Influenza A virus
[8] = system: A/Beijing/262/1995 (H1N1); assay: Electrochemical assay using the printed electrodes; type: biochemical, Influenza A virus; conditions: 100 μL virus + 100 μL PBS buffer with SG1, 1 hour, 37° C.; 20 μL tested
[9] = system: A/Nanching/933/1995 (H3N2); assay: Electrochemical assay using the printed electrodes; type: biochemical, Influenza A virus; conditions: 100 μL virus + 100 μL PBS buffer with SG1, 1 hour, 37° C.; 20 μL tested
A/Sydney/5/1997 (H3N2) = assay: Electrochemical assay using the printed electrodes; type: biochemical, Influenza A virus; conditions: 100 μL virus + 100 μL PBS buffer with SG1, 1 hour, 37° C.; 20 μL tested
[10] = system: A/New Caledonia/20/1999 (H1N1); assay: Electrochemical assay using the printed electrodes; type: biochemical, Influenza A virus
[11] = system: A/Solomon Islands/3/2006 (H1N1); assay: Electrochemical assay using the printed electrodes; type: biochemical, Influenza A virus; conditions: 100 μL virus + 100 μL PBS buffer with SG1, 1 hour, 37° C.; 20 μL tested
[12] = system: A/Uruguay/716/2007 (H3N2); assay: Electrochemical assay using the printed electrodes; type: biochemical, Influenza A virus; conditions: 100 μL virus + 100 μL PBS buffer with SG1, 1 hour, 37° C.; 20 μL tested
[13] = system: A/Brisbane/59/2007 (H1N1); assay: Electrochemical assay using the printed electrodes; type: biochemical, Influenza A virus; conditions: 100 μL virus + 100 μL PBS buffer with SG1, 1 hour, 37° C.; 20 μL tested
[14] = system: A/California/07/2009 (H1N1); assay: Electrochemical assay using the printed electrodes; type: biochemical, Influenza A virus; conditions: 100 μL virus + 100 μL PBS buffer with SG1, 1 hour, 37° C.; 20 μL tested
[15] = system: A/New York/18/2009 (H1N1); assay: Electrochemical assay using the printed electrodes; type: biochemical, Influenza A virus; conditions: 100 μL virus + 100 μL PBS buffer with SG1, 1 hour, 37° C.; 20 μL tested
[16] = system: A/San Diego/1/2009 (H1N1); assay: Electrochemical assay using the printed electrodes; type: biochemical, Influenza A virus; conditions: 100 μL virus + 100 μL PBS buffer with SG1, 1 hour, 37° C.; 20 μL tested
[17] = system: A/Wisconsin/629-D02452/2009 (H1N1); assay: Electrochemical assay using the printed electrodes; type: biochemical, Influenza A virus; conditions: 100 μL virus + 100 μL PBS buffer with SG1, 1 hour, 37° C.; 20 μL tested
[18] = system: A/Wisconsin/15/2009 (H3N2); assay: Electrochemical assay using the printed electrodes; type: biochemical, Influenza A virus; conditions: 100 μL virus + 100 μL PBS buffer with SG1, 1 hour, 37° C.; 20 μL tested
[19] = system: A/Brownsville/31H/2009 (H1N1); assay: Electrochemical assay using the printed electrodes; type: biochemical, Influenza A virus; conditions: 100 μL virus + 100 μL PBS buffer with SG1, 1 hour, 37° C.; 20 μL tested
[20] = system: A/Victoria/361/2011 (H3N2); assay: Electrochemical assay using the printed electrodes; type: biochemical, Influenza A virus; conditions: 100 μL virus + 100 μL PBS buffer with SG1, 1 hour, 37° C.; 20 μL tested
[21] = Electrochemical assay using the printed electrodes, SG1 without virus; conditions: No virus + SG1 (negative control)
α-Mannosidase = type: biochemical; conditions: substrate incubated with α-Mannosidase
β-Glucuronidase = conditions: substrate incubated with β-Glucuronidase
H1N1 virus [22] = assay: Hydrolysis of sialylglucose by intact influenza virus, amperometric glucose measurement; type: biochemical; conditions: for current compared with glucose standard solution: H1N1 virus
H3N2 NA = type: biochemical, influenza virus; conditions: H3N2 NA overnight
H5N1 NA = type: biochemical, influenza virus; conditions: H5N1 NA overnight
H3N2 virus [23] = assay: Hydrolysis of sialylglucose by intact influenza virus, amperometric glucose measurement; type: biochemical; conditions: H3N2 virus overnight
influenza NA = assay: Hydrolysis of the probe by influenza NA followed by mass spectroscopy; type: biochemical, influenza virus
H1N1 virus [24] = assay: Hydrolysis of the probe by intact influenza virus followed by mass spectrum; type: biochemical; conditions: pH 5.68, 37° C.
H3N2 virus [25] = assay: as above; type: biochemical; conditions: pH 5.68, 37° C.
[26] = 10 ng antiviral premixed 30 min before SG1
[27] = SG1 0.5 mM, 2 hours, 23° C., PBS buffer
[28] = 100 μL UV inactivated virus, 1 hour
[29] = 0.5 mM SG1, compared with one hour for most strains
[30] = 100 μL virus + 100 μL PBS buffer with SG1, 1 hour, 37° C., 20 μL tested
[31] = H1N1 virus 1 h, 1 mM substrate, pH 5.68, 37° C.

SMILES: CC(=O)N[C@H]1[C@H]([C@H](O)[C@H](O)CO)OC(C(=O)O)=C[C@@H]1N=C(N)N [Zanamivir]
- inhibition of NA (glucose release from SG1) by antiviral [1, 26]: completely inhibited
- inhibition of NA (glucose release from SG1) by antiviral [2, 26]: completely inhibited
- inhibition of NA (glucose release from SG1) by antiviral (H1N1 A/Brisbane/59/2007; [26]): completely inhibited; also recorded: Glucose was not released
- inhibition of NA (glucose release from SG1) by antiviral (H3N2 A/Aichi/2/1968; [26]): completely inhibited; also recorded: Glucose was not released
- inhibition of NA (glucose release from SG1) by antiviral (H3N2 A/HongKong/8/68; [26]): completely inhibited; also recorded: Glucose was not released
- inhibition of bacterial NA (glucose release from SG1) by antiviral ([3]; antiviral premixed with bacterial NA, then SG1): NA still cleaved SG1; also recorded: glucose was released

SMILES: CC(=O)NC1[C@@H](Oc2ccc(CO[C@@H]3OC(CO)[C@@H](O)[C@H](O)C3O)cc2)OC(CO)[C@@H](O)[C@@H]1O (some centres unmarked) [Substrate 24]
- i, value of electrochemical assay [4]: 11.1 ± 2.3 10^−8 A

SMILES: CC1O[C@@H](Oc2ccc(CO[C@@H]3OC(CO)[C@@H](O)[C@H](O)C3O)cc2)C(O)[C@@H](O)[C@@H]1O (some centres unmarked) [Substrate 26]
- i, value of electrochemical assay (α-L-Fucosidase): 25.2 ± 2.9 10^−8 A

SMILES: CC(=O)N[C@H]1[C@H]([C@H](O)[C@H](O)CO)O[C@@](OC[C@H]2OC(O)[C@H](O)[C@@H](O)[C@@H]2O)(C(=O)O)C[C@@H]1O (stereo partly drawn) [SG1, 5-acetamido-3,5-dideoxy-D-glycero-α-D-galacto-non-2-ulopyranosylonate-(2→6)-α,β-D-gluco pyranoside]
- cleavage of SG1 / glucose release [1, 27]: complete cleavage; also recorded: Glucose was released
- cleavage of SG1 / glucose release [2, 27]: complete cleavage; also recorded: Glucose was released
- matrix effect on cleavage of SG1 (H1N1 A/Brisbane/59/2007): does not affect the cleavage
- cleavage of SG1 / glucose release (H1N1 A/Brisbane/59/2007; [28]): cleave SG1, releasing glucose; also recorded: Glucose was released
- cleavage of SG1 / glucose release (H3N2 A/Aichi/2/1968; [28]): cleave SG1, releasing glucose; also recorded: Glucose was released
- cleavage of SG1 / glucose release (H3N2 A/HongKong/8/68; [28]): cleave SG1, releasing glucose; also recorded: Glucose was released
- cleavage of SG1 / glucose release ([3]; bacterial NA, no antiviral): cleaves SG1 to release glucose
- glucose release in the absence of enzymes [5]: no glucose released
- Electrochemical assay (current) [6]: 99.5 ± 4.4 ×10^−8 A
- Electrochemical assay (current) [7]: 13.4 ± 2.0 ×10^−8 A
- Electrochemical assay (current) (A/HongKong/8/1968 (H3N2)): 64.4 ± 5.2 ×10^−8 A
- time to completely cleave SG1 (A/Aichi/2/1968 (H1N1); [29]): require longer time to completely cleave SG1
- Electrochemical assay (current) (A/Aichi/2/1968 (H1N1); [30]): 31.3 ± 5.3 ×10^−8 A
- Electrochemical assay (current) [8]: 118.1 ± 11.6 ×10^−8 A
- Electrochemical assay (current) [9]: 15.1 + 2.8 ×10^−8 A
- Electrochemical assay (current) (A/Sydney/5/1997 (H3N2)): 115.7 ± 4.3 ×10^−8 A
- time to completely cleave SG1 [10, 29]: require longer time to completely cleave SG1
- Electrochemical assay (current) [10, 30]: 17.7 ± 2.6 ×10^−8 A
- Electrochemical assay (current) [11]: 79.7 ± 5.0 ×10^−8 A
- Electrochemical assay (current) [12]: 132.4 ± 6.3 ×10^−8 A
- Electrochemical assay (current) [13]: 106.2 ± 5.1 ×10^−8 A
- Electrochemical assay (current) [14]: 13.4 + 1.5 ×10^−8 A
- Electrochemical assay (current) [15]: 74.4 ± 5.6 ×10^−8 A
- Electrochemical assay (current) [16]: 108.5 ± 12.0 ×10^−8 A
- Electrochemical assay (current) [17]: 98.9 ± 5.7 ×10^−8 A
- Electrochemical assay (current) [18]: 107.8 ± 5.9 ×10^−8 A
- Electrochemical assay (current) [19]: 91.7 ± 9.7 ×10^−8 A
- Electrochemical assay (current) [20]: 94.5 ± 2.3 ×10^−8 A
- Electrochemical assay (current) [21]: 3.6 ± 2.2 ×10^−8 A

SMILES: O=C(O)C1O[C@@H](Oc2ccc(CO[C@@H]3OC(CO)[C@@H](O)[C@H](O)C3O)cc2)C(O)[C@@H](O)[C@@H]1O (stereo partly drawn) [Substrate 22, 1-(4-Hydroxymethylphenyl)-β-D-glucopyronuronic acid-1-α/β-D-glucopyranoside]
- i, value of electrochemical assay (α-Mannosidase): 12.3 ± 1.2 10^−8 A
- i, value of electrochemical assay (α-L-Fucosidase): 9.7 ± 3.5 10^−8 A
- i, value of electrochemical assay (β-Glucuronidase): 65.1 ± 4.6 10^−8 A

SMILES: CC(=O)N[C@H]1[C@H]([C@H](O)[C@H](O)CO)O[C@@](OC[C@H]2O[C@H](O)[C@H](O)[C@@H](O)[C@@H]2O)(C(=O)O)C[C@@H]1O [sialylglucose, 5-acetamido-3,5-dideoxy-D-glycero-α-D-galacto-non-2-ulopyranosylonate-(2→6) α-D-glucopyranoside]
- Calculated Glucose Concentration (H1N1 virus [22]; [31]): 116.2 µM
- Current (H1N1 virus [22]; [31]): 1.262E−07 A
- Calculated Glucose Concentration (H1N1 virus [22]; H1N1 virus 5 h): 126.6 µM
- Current (H1N1 virus [22]; H1N1 virus 5 h): 1.366E−07 A
- Calculated Glucose Concentration (H1N1 virus [22]; H1N1 virus overnight): 50.66 µM
- Current (H1N1 virus [22]; H1N1 virus overnight): 6.066E−08 A
- current compared with 1 h and 5 h samples (H1N1 virus [22]; H1N1 virus overnight): significantly lower current
- current compared with glucose standard solution (H1N1 virus [22]; hydrolysis stopped at 1 h): ~100 µM
- current compared with glucose standard solution (H1N1 virus [22]; hydrolysis stopped at 5 h): ~100 µM
- Calculated Glucose Concentration (H3N2 NA): 102.3 µM
- Current (H3N2 NA): 1.123E−07 A
- Calculated Glucose Concentration (H5N1 NA): 66.47 µM
- Current (H5N1 NA): 7.647E−08 A
- Calculated Glucose Concentration (H3N2 virus [23]): 76.09 µM
- Current (H3N2 virus [23]): 8.609E−08 A
- hydrolysis of the probe by NA (mass spectrum) (influenza NA; pH 5.68, 37° C., overnight): substrate peak could no longer be observed
- hydrolysis of the probe by NA (mass spectrum) (influenza NA; pH 7.40, room temperature, overnight incubation): incomplete hydrolysis
- hydrolysis by intact influenza virus (mass spectrum) (H1N1 virus [24]): complete hydrolysis
- hydrolysis by intact influenza virus (mass spectrum) (H3N2 virus [25]): complete hydrolysis
